Data: patent publication US20020049173A1, “Alteration of cellular behavior by antisense modulation of mRNA processing” (priority 1999, published 2002)
In the oligonucleotide strings, read from the 5' end, every base follows the letter of its sugar. An asterisk marks phosphorothioate; unmarked linkages are phosphodiester. Other units and linkages are bracketed, terminal groups are in braces. A string of capitals states the bases alone. e = 2'-O-(2-methoxyethyl) (MOE); [5mC] = 5-methylcytosine

Columns and labels:
[1] = test system: murine IL-5 receptor α mRNA, soluble form; assay: Soluble IL-5 receptor α mRNA by Northern blot in BCL1 cells; type: cell-based, mouse; details: for % INHIB'N SOLUBLE IL-5 RECEPTOR: 10 μM dose, exon-exon boundary oligonucleotides
Description: (§1) Murine BCL1 cells were chosen for screening antisense oligonucleotides targeted to murine IL-5 receptor α. These are B-cell leukemia cells derived from a spontaneously arising tumor of BALB/c origin, and proliferate in response to murine or human IL-5. This is a CD5+line which resembles a subset of human chronic lymphocytic leukemia tumors and secretes IgM upon lipopolysaccharide stimulation. Cells were obtained from the American Type Culture Collection and cultured in RPMI 1640 medium supplemented with 10% heat-inactivated fetal bovine serum (Sigma Chemical Co., St. Louis, Mo.), 10 mM Hepes, pH 7.2, 50 μM 2-ME, 2 mM L-glutamine, 100 U/ml penicillin and 100 μg/ml streptomycin (Gibco, Grand Island, N.Y.).
(§2) The effect of these compounds on both membrane and soluble forms of murine IL-5 receptor α were measured and are shown in Table 1B. Oligonucleotides were screened in BCL1 cells at a dose of 10 μM and IL-5 receptor α mRNA was measured by Northern blot. Percent inhibition is compared to untreated (no oligo) control.
(§3) Total BCL1 cellular RNA was isolated using the RNeasy™ kit (Qiagen, Santa Clara Calif.) . Northern blotting was performed using standard methods. The cDNA probes were generated from oligonucleotides matching the exon sequences of either exons 2, 8, 9 or 10. Signals were quantitated using a Molecular Dynamics PhosphorImager.

[2] = test system: murine IL-5 receptor α mRNA, membrane form; assay: Membrane IL-5 receptor α mRNA by Northern blot in BCL1 cells; type: cell-based, mouse; details: for % INHIB'N MEMBRANE IL-5 RECEPTOR: 10 μM dose, exon-exon boundary oligonucleotides
Description: as §1, §2, §3

[3] = test system: human bcl-x mRNA; assay: Total bcl-x mRNA and bcl-xs/bcl-xl ratio in A549 cells, RNase protection; type: cell-based; details: A549 cells; for bcl-xs/bcl-xl: 200 nM oligonucleotide (Table 15)
Description: (§4) In accordance with the present invention, a series of oligonucleotides were designed to target different regions of human bcl-x RNA, using published sequences (Boise, L. H., et al., 1993, Cell 74, 597-608; Genbank Accession No. L20121, locus name “HSBCLXL,” incorporated herein as SEQ ID NO: 39). Antisense oligonucleotides were designed to target areas of exon 1 and exon 2 of human bcl-x, particularly around the exon 1/exon 2 splice site and in sequence regions present in bcl-xl but not in bcl-xs. All backbone linkages are phosphorothioates; All 2′MOE cytosines are 5-methylcytosines.
(§5) Oligonucleotides were evaluated for their respective effects on bcl-xs and bcl-xl3 mRNA levels in A549 cells along with total bcl-x mRNA levels, using the RIBOQUANT™ RNase protection kit (Pharmingen, San Diego Calif.). All assays were performed according to manufacturer's protocols.
(§6) A “walk” was done in this region with 20mer 2′-MOE phosphorothioate oligonucleotides targeted to sequences whose 5′ ends were 24, 26, 29, 31, 33, 37, 39, 41, 43, 44, 45 and 47 bases upstream of the splice site. These oligonucleotides were screened as before at a dose of 200 nM oligonucleotide for effect on short and long bcl-x transcripts.

[4] = test system: human bcl-xl mRNA; assay: bcl-xl mRNA in A549 cells, RIBOQUANT RNase protection; type: cell-based; details: 200 nM oligonucleotide (Table 15)
Description: as §4, §5, §6

[5] = test system: human bcl-xs mRNA; assay: bcl-xs mRNA in A549 cells, RIBOQUANT RNase protection; type: cell-based; details: 200 nM oligonucleotide (Table 15)
Description: as §4, §5, §6

[6] = BCL1 cells, 10 μM, 24 hours, uniform 2′-MOE

Substance | % INHIB'N SOLUBLE IL-5 RECEPTOR [1] | % INHIB'N MEMBRANE IL-5 RECEPTOR [2] | bcl-xs/bcl-xl [3] | % CONTROL bcl-xl [4] | % CONTROL bcl-xs [5] | other results
21760 (e[5mC]*eT*eA*e[5mC]*eA*e[5mC]*eT*e[5mC]*eT*eG*e[5mC]*eA*eG*eA*eT*eG*eA*eG*eT*eG) [compound 21760] | – | – | – | – | – | % control soluble IL-5 Rα [1, 6]: 116%; % control membrane IL-5 Rα [2, 6]: 55%; % inhib'n membrane IL-5 Rα [2, 6]: 45%
21847 (eG*eT*eT*eT*eT*eT*e[5mC]*e[5mC]*eT*eT*e[5mC]*eT*eG*eA*eA*eT*eG*eT*eG*eA; antisense) [compound 21847] | 20% | 23% | – | – | – | –
21849 (e[5mC]*eT*eT*eT*e[5mC]*e[5mC]*eT*eT*eT*e[5mC]*e[5mC]*e[5mC]*eA*e[5mC]*eA*eT*eA*eA*eA*eT) [compound 21849] | 5% | 70% | – | – | – | –
21851 (eT*eA*eA*eA*eT*eG*eA*e[5mC]*eA*e[5mC]*eA*e[5mC]*eT*e[5mC]*eT*eG*e[5mC]*eA*eG*eA; antisense) [compound 21851] | 0% | 61% | – | – | – | –
21853 (eT*eA*eA*eA*eT*eG*eA*e[5mC]*eA*e[5mC]*e[5mC]*e[5mC]*eA*e[5mC]*eA*eT*eA*eA*eA*eT; antisense) [compound 21853] | 45% | 14% | – | – | – | –
21855 (eT*e[5mC]*eG*eA*eA*eG*eG*eT*eT*eT*e[5mC]*e[5mC]*eA*e[5mC]*eA*eT*eA*eA*eA*eT) [compound 21855] | 25% | 14% | – | – | – | –
23172 (GTTCCTGGCCCTTTCGGCTC; listed as DNA, chemistry not fully specified) [compound 23172] | – | – | – | – | – | bcl-xs/bcl-xl* (change from the no-oligo ratio 17.56, which reads 1) [3]: 1.1
26067 (GGATCCAAGGCTCTAGGTGG; all 2'-MOE, all phosphorothioate, methylation of C not given here) [compound 26067] | – | – | 6.59 | 32% | 211% | –
26069 (antisense TCTCCTGGATCCAAGGCTCT; all 2'-MOE, all phosphorothioate, methylation of C not given here) [compound 26069] | – | – | 5.80 | 40% | 232% | –
26070 (antisense GTTCTCCTGGATCCAAGGCT; all 2'-MOE, all phosphorothioate, methylation of C not given here) [compound 26070] | – | – | 6.54 | 37% | 242% | –
26071 (antisense GCCGTTCTCCTGGATCCAAG; all 2'-MOE, all phosphorothioate, methylation of C not given here) [compound 26071] | – | – | 7.97 | 37% | 295% | –
26072 (antisense CCGCCGTTCTCCTGGATCCA; all 2'-MOE, all phosphorothioate, methylation of C not given here) [compound 26072] | – | – | 5.38 | 42% | 226% | –
SEQ ID NO 54: CTCTAGGTGGTCATTCAGGT; 20mer 2′-MOE phosphorothioate, no ISIS # printed; Exon 1L 652-671 (all 2'-MOE, all phosphorothioate, methylation of C not given here) | – | – | 7.14 | 42% | 300% | –
SEQ ID NO 55: GGCTCTAGGTGGTCATTCAG; 20mer 2′-MOE phosphorothioate, no ISIS # printed; Exon 1L 654-673 (all 2'-MOE, all phosphorothioate, methylation of C not given here) | – | – | 6.72 | 47% | 316% | –
SEQ ID NO 57: AAGGCTCTAGGTGGTCATTC; 20mer 2′-MOE phosphorothioate, no ISIS # printed; Exon 1L 656-675 (all 2'-MOE, all phosphorothioate, methylation of C not given here) | – | – | 7.64 | 53% | 405% | –
